# From patent US20200297820A1, “STIMULATION OF HUMAN MEIBOMIAN GLAND FUNCTION” (The Schepens Eye Research Institute, Inc., priority 2013, published 2020)
# What was measured:
# [1] = system: immortalized human meibomian gland epithelial cells; assay: LipidTOX green neutral lipid staining (lipid accumulation); assay type: cell-based; details: for lipid accumulation: 10^−8 M
# Experimental: (§1) As an example of these experiments, immortalized human meibomian gland epithelial cells were cultured in the presence or absence of 10% fetal bovine serum. Cells were treated with an ethanol vehicle or azithromycin (10 μg/ml; Santa Cruz Biotechnology) for varying time periods. Cellular morphological appearance was recorded, cells were counted with a hemocytometer, and lipid accumulation was assessed by staining the cells with LipidTOX green neutral lipid stain (Invitrogen, Grand Island, N.Y.), according to reported methods. Staining fluorescent intensities were quantified by using ImageJ (http://rsbweb.nih.gov/ij/index.html). Statistical analyses were performed with Student's t-test (two-tailed, unpaired).
# (§2) Immortalized human meibomian gland epithelial cells (IHMGECs; passages 20-22) were cultured in the presence or absence of 10% fetal bovine serum. Cells were treated with the ethanol vehicle or azithromycin (10 μg/mL) for varying periods. Cellular morphological appearance was recorded, cells were counted with a hemocytometer, and lipid accumulation was assessed by staining cells with LipidTOX green neutral lipid stain (Invitrogen Corp). Staining fluorescent intensities were quantified using ImageJ software (http://rsbweb.nih.gov/ij/index.html). Statistical analyses were performed with t test (2-tailed, unpaired).
# Cell numbers were enumerated with a hemocytometer. Cellular lipid and lysosome accumulation were examined by staining cells with: Filipin III (a fluorometric probe for identifying unesterified cholesterol), LipidTOX green neutral lipid stain, and LysoTracker® Red DND-99 (a fluorescent technique designed for labeling acidic organelles such as lysosomes). Lysosomal lamellar bodies were identified by transmission electron microscopy. In brief, after culture and treatment on 24 mm polycarbonate membrane transwell inserts (0.4 μm pore size), cells were fixed in a solution of 2% formaldehyde+2.5% glutaraldehyde, in 0.08 M sodium cacodylate buffer, pH 7.4, post-fixed with 2% osmium tetroxide in 0.1 M sodium cacodylate buffer, and stained en bloc with 2% aqueousuranyl acetate. […] Cross sections (1 μM) were stained with 1% toluidine blue in 1% sodium tetraborate solution. Ultra-thin sections (60-90 nm) were imaged with a transmission electron microscope interfaced with a digital CCD camera. For biochemical assessments, cellular lipids were extracted with chloroform and methanol from samples with the same amount of protein. Lipids were then evaluated with high-performance thin-layer chromatography. With regard to the staining results, three Filipin, five LipidTox and four LysoTracker studies were conducted, and each experiment was performed in duplicate. Four random pictures were taken of each group, and four random areas were selected for the measurement of fluorescent intensities. The HPTLC experiments were performed in duplicate more than three times. Image data were quantified with ImageJ (http://rsbweb.nib.gov/ij/index.html). Electron microscopic analyses were performed in triplicate.
# The experiment included green neutral lipid staining. Immortalized human meibomian gland epithelial cells were cultured in slides treated to facilitate cell growth in FBS-containing medium in the presence or absence of IGF-1, anti-IGF-1R, and/or GH. Media were replaced every 2 to 3 days for a total of 6 days, at which time cells were washed and fixed in 4% paraformaldehyde for 30 minutes. After additional washes, cells were stained with green neutral lipid stain in a humid chamber for 30 minutes. Coverslips were mounted on slides with an antifade reagent that contains 4′,6-diamidino-2-phenylindole nuclear stain and permitted to dry overnight before imaging with a microscope. Fluorescence intensity was quantified using image-processing software.
# [2] = system: human meibomian gland epithelial cells; assay: Immunoblot of signaling pathways (Akt, FoxO1, ERK, JAK2/STAT5); assay type: cell-based
# Experimental: The disclosure turns now to sodium dodecyl sulfate-polyacrylamide gel, electrophoresis, and immunoblots. Cells were directly lysed in Laemmli buffer supplemented with 1% protease inhibitor cocktail (Sigma-Aldrich) and 5% β-mercaptoethanol (Sigma-Aldrich). Lysates were heated at 95° C. for 10 minutes, separated by sodium dodecyl sulfate-polyacrylamide gel electrophoresis on 10% Tris-glycine precast gels, and transferred to polyvinylidene difluoride membranes. Rabbit or mouse antibodies used were specific for phosphorylated Akt (p-Akt), pan-Akt, p-FoxO1, FoxO1, p-JAK2, JAK2, and β-actin; for p-ERK, ERK-2, STAT5, and the precursor form of SREBP-1; and for p-STAT5. Membranes were blocked with 5% bovine serum albumin in Tris-buffered saline containing 0.01% polysorbate 20. All primary antibodies were diluted to 1:1000 in blocking buffer except for p-Akt (1:4000), p-ERK (1:2000), ERK-2 (1:4000), SREBP-1 (1:200), and β-actin (1:10 000). Horseradish peroxidase-conjugated secondary antibodies were goat anti-rabbit IgG and Fc-specific goat anti-mouse IgG diluted to 1:5000. Proteins were visualized with enhanced chemiluminescent substrate or with ultrasensitive chemiluminescent substrate. Densitometry was performed with image-processing software.
# To determine whether IGF-1 promotes the phosphorylation of Akt in human meibomian gland epithelial cells, cells were cultured under proliferating or differentiating conditions and then exposed to IGF-1 for 15 minutes.
# FIGS. 9a, 9b, and 9c illustrate the effects of insulin-like growth factor 1 (IGF-1) and growth hormone (GH) on signaling pathways in human meibomian gland epithelial cells. Cells were cultured in keratinocyte serum-free medium containing epidermal growth factor (EGF) and bovine pituitary extract (BPE) for 2 days and then keratinocyte serum-free medium alone overnight or were cultured in 10% fetal bovine serum (FBS) medium for 5 to 7 days and in 1% FBS medium overnight. Cells were then incubated with vehicle or a 10 μM concentration of LY294002 for 2 hours, followed by IGF-1 or GH treatment for 15 minutes. Cell lysates were evaluated on immunoblotting. […] These experiments were repeated at least 3 times with similar results.
# To assess whether GH activates Akt, FoxO1, ERK-2, or its classic (i.e., JAK2 and STAT5) signaling pathways in human meibomian gland epithelial cells, cells were cultured in proliferating or differentiating media, and were exposed to a 10 nM concentration of GH for 15 minutes, and processed for immunoblot analyses. […]
# [3] = system: immortalized human meibomian gland epithelial cells; assay: Cell proliferation, cells counted with a hemocytometer; assay type: cell-based; details: insulin
# Experimental: as §1, §2
# Regarding cell proliferation assay, the human meibomian gland epithelial cells and LNCaP cells were cultured in 12-well plates in designated media and then exposed to IGF-1 or GH for defined periods. At experimental termination, cells were trypsinized and counted with a hemocytometer.
# FIGS. 10a, 10b, and 10c illustrate the influence of IGF-1 on the proliferation of human meibomian gland epithelial cells. Cells were cultured (100,000 cells/well in 12-well plates, 3 wells per group) in basal, proliferating, and/or differentiating media and treated with IGF-I for 2 to 6 days. […] P values are for post hoc comparison compared with the control value. […] ANOVA indicates analysis of variance; EGF-BPE, epidermal growth factor-bovine pituitary extract; KSFM, keratinocyte serum-free medium. All comparisons are with control value. Whiskers mark SEM. aP<0.05 compared with the control value, post hoc test.
# [4] = system: immortalized human meibomian gland cells; assay: 13-cis RA-induced late apoptosis/necrosis; assay type: cell-based
# [5] = one trial; cited from earlier work
molecule,measurement,setting,value
CC(=O)[C@H]1CC[C@H]2[C@@H]3CCC4=CC(=O)CC[C@]4(C)[C@H]3CC[C@]12C [progesterone],lipid accumulation,[1],marked lipid accumulation
C[C@]12CCC(=O)C[C@@H]1CC[C@@H]1[C@@H]2CC[C@]2(C)[C@@H](O)CC[C@@H]12 [Dihydrotestosterone],lipid accumulation,[1],marked lipid accumulation
same,phosphorylation of extracellular-signal-regulated kinases (ERKs),[2],increase the phosphorylation
"Insulin: insulin, an IGF-1 analogue",accumulation of neutral lipids,[1]; insulin,promotes meibomian gland epithelial cell accumulation of neutral lipids
same,cell proliferation,[3],promotes meibomian gland epithelial cell proliferation
same,activation of AKT signaling pathway,[2]; cells in serum-containing medium 5-7 days before treatment,dose-dependent manner
CC1=C(/C=C/C(C)=C/C=C/C(C)=C\C(=O)O)C(C)(C)CCC1 [13-cis RA],induction of late apoptosis/necrosis,[4],induced late apoptosis/necrosis
"figitumumab: human IgG2 monoclonal antibody that prevents the binding of IGF-1 to its receptor (antibody, chains of the INN, looked up) heavy: EVQLLESGGGLVQPGGSLRLSCTASGFTFSSYAMNWVRQAPGKGLEWVSAISGSGGTTFYADSVKGRFTISRDNSRTTLYLQMNSLRAEDTAVYYCAKDLGWSDSYYYYYGMDVWGQGTTVTVSSASTKGPSVFPLAPCSRSTSESTAALGCLVKDYFPEPVTVSWNSGALTSGVHTFPAVLQSSGLYSLSSVVTVPSSNFGTQTYTCNVDHKPSNTKVDKTVERKCCVECPPCPAPPVAGPSVFLFPPKPKDTLMISRTPEVTCVVVDVSHEDPEVQFNWYVDGVEVHNAKTKPREEQFNSTFRVVSVLTVVHQDWLNGKEYKCKVSNKGLPAPIEKTISKTKGQPREPQVYTLPPSREEMTKNQVSLTCLVKGFYPSDIAVEWESNGQPENNYKTTPPMLDSDGSFFLYSKLTVDKSRWQQGNVFSCSVMHEALHNHYTQKSLSLSPG light: DIQMTQFPSSLSASVGDRVTITCRASQGIRNDLGWYQQKPGKAPKRLIYAASRLHRGVPSRFSGSGSGTEFTLTISSLQPEDFATYYCLQHNSYPCSFGQGTKLEIKRTVAAPSVFIFPPSDEQLKSGTASVVCLLNNFYPREAKVQWKVDNALQSGNSQESVTEQDSKDSTYSLSSTLTLSKADYEKHKVYACEVTHQGLSSPVTKSFNRGEC",most common adverse effect,[5],DED
